# Biological target: T1, GLP-1 Receptor (Homo sapiens, UniProt P43220)
# T1 construct: host or cells: HEK293/CRE-Luc
# Assay: GLP-1R agonist cAMP stimulation assay
# Assay type: cell-based
# Settings: HEK293/CRE-Luc cell line stably expressing the GLP-1 Receptor; 30 min at 37° C.; cAMP dynamic 2 Kit
# Protocol: Activation of GLP-1 receptor is known to stimulate cyclic AMP (cAMP) production in cells which indicates primary coupling to the Gas subunit of the G protein heterotrimeric complex.
# To optimize functional activity directed toward Gas coupling, a HEK293/CRE-Luc cell line developed by HDB stably expressing the GLP-1 Receptor was used. 200× concentration of compound working solutions were prepared (Agilent Technologies Bravo) with ½ log serial dilution in 384-well Echo LDV plate (Labcyte, Cat #LP-0200). 50 nL/well 200× concentration of compound working solutions were moved to 384-well white low volume plate (Greiner, Cat #784075) using Labcyte ECHO550. 1×10^5 cells/mL HEK293/GLPlR/CRE-LUC (HD Biosciences) cell suspensions prepared with assay buffer [DPBS containing 0.5 mM IBMX (Sigma, Cat #15879) and 0.1% BSA (GENVIEW, Cat #FA016-100g)], 10 μL cell suspensions were added to each well of previous generated assay plate which already contains 50 nL compound at 200× concentration using ThermoFisher Multidrop Combi (1000 cells/well). Seal the plate and incubate at 37° C. with 5% CO2 for 30 min.
# After incubation the cAMP assay signal was generated using cAMP dynamic 2 Kit (Cisbio). 5 μL cAMP-d2 working solution was added to each well, followed with 5 μL Anti-cAMP antibody-cryptate working solution added to each well using ThermoFisher Multidrop Combi. Incubate at room temperature for 1 hour protected from light. Read the fluorescence at 665 and 615 nm with Reader PerkinElmer EnVision.
# % Activity=100%×(mean RLU of test sample mean RLU of vehicle control)/(mean RLU of MAX control−mean RLU of vehicle control))
# T1 sequence (P43220 24-463): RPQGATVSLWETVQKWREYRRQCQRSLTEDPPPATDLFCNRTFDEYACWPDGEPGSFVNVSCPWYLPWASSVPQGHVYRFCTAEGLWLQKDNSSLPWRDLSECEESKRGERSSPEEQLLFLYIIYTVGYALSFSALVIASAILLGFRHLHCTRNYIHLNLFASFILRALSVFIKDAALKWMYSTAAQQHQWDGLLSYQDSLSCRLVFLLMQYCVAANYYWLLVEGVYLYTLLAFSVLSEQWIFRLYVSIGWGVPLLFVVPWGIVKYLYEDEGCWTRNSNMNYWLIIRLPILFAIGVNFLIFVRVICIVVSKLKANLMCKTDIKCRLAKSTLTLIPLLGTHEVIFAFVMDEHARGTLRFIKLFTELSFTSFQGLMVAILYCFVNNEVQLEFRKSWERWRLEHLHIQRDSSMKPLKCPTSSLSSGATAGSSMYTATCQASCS
row,SMILES,EC50 [nM]
1,"N#CC1(Cc2cc(-c3nnc(C(F)(F)F)[nH]3)cnc2CN2CCN(c3ccc(Cl)c(OCc4ccc(Cl)cc4F)c3)CC2)CC1 [Example 42, 1-({2-[(4-{4-chloro-3-[(4-chloro-2-fluorophenyl)methoxy]phenyl}piperazin-1-yl)methyl]-5-[5-(trifluoromethyl)-4H-1,2,4-triazol-3-yl]pyridin-3-yl}methyl)cyclopropane-1-carbonitrile]",1 to 100
2,"C[C@H]1CN(c2ccc(F)c(OCc3ccc(Cl)cc3F)c2)CCN1Cc1ncc(-c2nnc(C(F)(F)F)[nH]2)cc1CC1(C#N)CC1 [Example 43, 1-[(2-{[(2S)-4-{3-[(4-chloro-2-fluorophenyl)methoxy]-4-fluorophenyl}-2-methylpiperazin-1-yl]methyl}-5-[5-(trifluoromethyl)-4H-1,2,4-triazol-3-yl]pyridin-3-yl)methyl]cyclopropane-1-carbonitrile]",< 1
3,"N#CC1(Cc2cc(-c3nnc(C(F)(F)F)[nH]3)cnc2CN2CC=C(c3cccc(OCc4ccc(Cl)cc4F)n3)CC2)CC1 [Example 47, 1-{[2-({6-[(4-chloro-2-fluorophenyl)methoxy]-1′,2′,3′,6′-tetrahydro-[2,4′-bipyridin]-1′-yl}methyl)-5-[5-(trifluoromethyl)-4H-1,2,4-triazol-3-yl]pyridin-3-yl]methyl}cyclopropane-1-carbonitrile]",< 1
4,"N#CC1(Cc2cc(-c3nnc(C(F)(F)F)[nH]3)cnc2CN2CC=C(c3ccc(F)c(OCc4ccc(Cl)cc4F)c3)CC2)CC1 [Example 48, 1-({2-[(4-{3-[(4-chloro-2-fluorophenyl)methoxy]-4-fluorophenyl}-1,2,3,6-tetrahydropyridin-1-yl)methyl]-5-[5-(trifluoromethyl)-4H-1,2,4-triazol-3-yl]pyridin-3-yl}methyl)cyclopropane-1-carbonitrile]",1 to 100
5,"Cc1cc(-c2nnn[nH]2)nnc1CN1CCC(c2cccc3c2O[C@@](C)(c2ccc(Cl)cc2F)O3)CC1 [Example 50, 3-({4-[(2S)-2-(4-chloro-2-fluorophenyl)-2-methyl-1,3-benzodioxol-4-yl]piperidin-1-yl}methyl)-4-methyl-6-(1H-1,2,3,4-tetrazol-5-yl)pyridazine]",1 to 100
6,"Cc1nc(-c2nnc(C(F)(F)F)[nH]2)cnc1CN1CCC(c2cccc3c2O[C@@](C)(c2ccc(Cl)cc2F)O3)CC1 [Example 52, 2-({4-[(2S)-2-(4-chloro-2-fluorophenyl)-2-methyl-1,3-benzodioxol-4-yl]piperidin-1-yl}methyl)-3-methyl-5-[5-(trifluoromethyl)-4H-1,2,4-triazol-3-yl]pyrazine]",1 to 100
7,"C[C@]1(c2ccc(Cl)cc2F)Oc2cccc(C3CCN(Cc4ncc(-c5nnc(C(F)(F)F)[nH]5)cc4CS(C)(=O)=O)CC3)c2O1 [Example 55, 2-({4-[(2S)-2-(4-chloro-2-fluorophenyl)-2-methyl-2H-1,3-benzodioxol-4-yl]piperidin-1-yl}methyl)-3-(methanesulfonylmethyl)-5-[5-(trifluoromethyl)-4H-1,2,4-triazol-3-yl]pyridine]",< 1
8,"CS(=O)(=O)Cc1cc(-c2nnc(C(F)(F)F)[nH]2)cnc1CN1CCC(c2cccc(OCc3ccc(Cl)cc3F)n2)CC1 [Example 57, 2-[(4-{6-[(4-chloro-2-fluorophenyl)methoxy]pyridin-2-yl}piperidin-1-yl)methyl]-3-(methanesulfonylmethyl)-5-[5-(trifluoromethyl)-4H-1,2,4-triazol-3-yl]pyridine]",1 to 100
9,"C[C@]1(c2ccc(Cl)cc2F)Oc2cccc(C3CCN(Cc4ncc(-c5noc(=O)[nH]5)cc4CS(C)(=O)=O)CC3)c2O1 [Example 58, 3-[6-({4-[(2S)-2-(4-chloro-2-fluorophenyl)-2-methyl-2H-1,3-benzodioxol-4-yl]piperidin-1-yl}methyl)-5-(methanesulfonylmethyl)pyridin-3-yl]-2,5-dihydro-1,2,4-oxadiazol-5-one]",< 1
10,"CCS(=O)(=O)Cc1cc(-c2nnc(C(F)(F)F)[nH]2)cnc1CN1CCC(c2cccc3c2O[C@@](C)(c2ccc(Cl)cc2F)O3)CC1 [Example 59, 2-({4-[(2S)-2-(4-chloro-2-fluorophenyl)-2-methyl-2H-1,3-benzodioxol-4-yl]piperidin-1-yl}methyl)-3-[(ethanesulfonyl)methyl]-5-[5-(trifluoromethyl)-4H-1,2,4-triazol-3-yl]pyridine]",< 1
11,"C[C@]1(c2ccc(Cl)cc2F)Oc2cccc(C3CCN(Cc4ncc(-c5nnc(C(F)(F)F)[nH]5)nc4CC4(C#N)CC4)CC3)c2O1 [Example 62, 1-{[3-({4-[(2S)-2-(4-chloro-2-fluorophenyl)-2-methyl-2H-1,3-benzodioxol-4-yl]piperidin-1-yl}methyl)-6-[5-(trifluoromethyl)-4H-1,2,4-triazol-3-yl]pyrazin-2-yl]methyl}cyclopropane-1-carbonitrile]",< 1

# The remaining lines, values ahead:
row,EC50 [nM],SMILES
1,1 to 100,"N#CC1(Cc2cc(-c3nnc(C(F)(F)F)[nH]3)cnc2CN2CCN(c3ncc(F)c(OCc4ccc(Cl)cc4F)n3)CC2)CC1 [Example 45, 1-((2-((4-(4-((4-chloro-2-fluorobenzyl)oxy)-5-fluoropyrimidin-2-yl)piperazin-1-yl)methyl)-5-(5-(trifluoromethyl)-4H-1,2,4-triazol-3-yl)pyridin-3-yl)methyl)cyclopropane-1-carbonitrile]"
2,1 to 100,"Cc1cc(-c2nnc(C(F)(F)F)[nH]2)nnc1CN1CCC(c2cccc3c2O[C@@](C)(c2ccc(Cl)cc2F)O3)CC1 [Example 49, (S)-3-((4-(2-(4-chloro-2-fluorophenyl)-2-methylbenzo[d][1,3]dioxol-4-yl)piperidin-1-yl)methyl)-4-methyl-6-(5-(trifluoromethyl)-4H-1,2,4-triazol-3-yl)pyridazine]"
3,1 to 100,"Cc1cc(-c2noc(=O)[nH]2)nnc1CN1CCC(c2cccc3c2O[C@@](C)(c2ccc(Cl)cc2F)O3)CC1 [Example 51, (S)-3-(6-((4-(2-(4-chloro-2-fluorophenyl)-2-methylbenzo[d][1,3]dioxol-4-yl)piperidin-1-yl)methyl)-5-methylpyridazin-3-yl)-1,2,4-oxadiazol-5(4H)-one]"
4,1 to 100,"COC1(Cc2cc(-c3nnc(C(F)(F)F)[nH]3)cnc2CN2CCC(c3cccc4c3O[C@@](C)(c3ccc(Cl)cc3F)O4)CC2)CC1 [Example 53, 2-({4-[(2S)-2-(4-chloro-2-fluorophenyl)-2-methyl-2H-1,3-benzodioxol-4-yl]piperidin-1-yl}methyl)-3-[(1-methoxycyclopropyl)methyl]-5-[5-(trifluoromethyl)-4H-1,2,4-triazol-3-yl]pyridine]"
5,1 to 100,"C[C@]1(c2ccc(Cl)cc2F)Oc2cccc(C3CCN(Cc4ncc(-c5nnc(C(F)(F)F)[nH]5)cc4CC4CCS4(=O)=O)CC3)c2O1 (stereo partly drawn) [Example 54, 2-{[2-({4-[(2S)-2-(4-chloro-2-fluorophenyl)-2-methyl-2H-1,3-benzodioxol-4-yl]piperidin-1-yl}methyl)-5-[5-(trifluoromethyl)-4H-1,2,4-triazol-3-yl]pyridin-3-yl]methyl}-1λ^6-thietane-1,1-dione]"
6,1 to 100,"CN(C)C(=O)Cc1cc(-c2nnc(C(F)(F)F)[nH]2)cnc1CN1CCC(c2cccc3c2O[C@@](C)(c2ccc(Cl)cc2F)O3)CC1 [Example 56, (S)-2-(2-((4-(2-(4-chloro-2-fluorophenyl)-2-methylbenzo[d][1,3]dioxol-4-yl)piperidin-1-yl)methyl)-5-(5-(trifluoromethyl)-4H-1,2,4-triazol-3-yl)pyridin-3-yl)-N,N-dimethylacetamide]"
7,1 to 100,"CC(c1cc(-c2nnc(C(F)(F)F)[nH]2)cnc1CN1CCC(c2cccc3c2O[C@@](C)(c2ccc(Cl)cc2F)O3)CC1)S(C)(=O)=O (stereo partly drawn) [Example 60, 2-((4-((S)-2-(4-chloro-2-fluorophenyl)-2-methylbenzo[d][1,3]dioxol-4-yl)piperidin-1-yl)methyl)-3-(1-(methylsulfonyl)ethyl)-5-(5-(trifluoromethyl)-4H-1,2,4-triazol-3-yl)pyridine]"
8,< 1,"CS(=O)(=O)Cc1cc(-c2nnc(C(F)(F)F)[nH]2)cnc1CN1CCC(c2ccc(F)c(OCc3ccc(Cl)cc3F)n2)CC1 [Example 61, 2-[(4-{6-[(4-chloro-2-fluorophenyl)methoxy]-5-fluoropyridin-2-yl}piperidin-1-yl)methyl]-3-(methanesulfonylmethyl)-5-[5-(trifluoromethyl)-4H-1,2,4-triazol-3-yl]pyridine]"
9,< 1,"N#CC1(Cc2cc(-c3nnc(C(F)(F)F)[nH]3)cnc2CN2CCC(c3ccc(F)c(OCc4ccc(Cl)c5ccoc45)n3)CC2)CC1 [Example 63, 1-((2-((4-(6-((4-chlorobenzofuran-7-yl)methoxy)-5-fluoropyridin-2-yl)piperidin-1-yl)methyl)-5-(5-(trifluoromethyl)-4H-1,2,4-triazol-3-yl)pyridin-3-yl)methyl)cyclopropane-1-carbonitrile]"

# From patent US20250145596A1, “HETEROCYCLIC GLP-1 AGONISTS” (Gasherbrum Bio, Inc., priority 2022, published 2025)
